In patent EP4731189B1, “SOLID ORAL FORMULATION OF PUDAFENSINE” (Initiator Pharma A/S, priority 2023, dated 2024):
≈ marks a conversion by molar mass, not a printed value.

Experiments:
[1] = tested on: male subjects with erectile dysfunction (ED); test: Phase IIb study in erectile dysfunction, treatment-emergent adverse events and semen analysis; type: in vivo, humans
Source text: (§1) The study investigated the effects of repeat single oral doses of IP2015 on male subjects with erectile dysfunction (ED) on ability to develop and maintain an erection, as well as safety and tolerability of single oral doses of IP2015, effects on penile rigidity and tumescence during visual stimulation, effects on sperm count and motility, and any possible relationship between plasma levels of IP2015, its efficacy and safety.
(§2) 130 subjects were divided into 3 groups upon which the study was conducted in parallel. Each subject was dosed on four occasions with either 5 mg IP2015, 10 mg IP2015 or matched placebo. In each group, subjects were randomized evenly to each of the three study treatments and received the same treatment at each visit.
(§3) On Day -7, and at Week 1 (Day 1), Week 2, Week 3, Week 4 and Follow-up visits, all groups were asked to complete the IIEF-15 questionnaire. Group 2 was asked to complete a Visual Stimulation Assessment using a RigiScan Plus Monitor on Day -7, Week 1 (Day 1) and Week 4. Group 2 was also required to provide blood samples for pharmacokinetic assessment on Week 1 (Day 1) and Week 4. Group 3 was required to provide semen samples on Day -7 and Week 4.
(§4) There were three potential study treatments of 5 mg IP2015, 10 mg IP2015 or matched placebo. In each group, subjects were randomized evenly to each of the three study treatments and received the same treatment on each visit. IP2015 or matched placebo was administered once in the morning of Week 1 (Day 1), Week 2, Week 3, and Week 4 as an oral solution in the fasted state. The dose was taken with 240 mL of water at room temperature. Subjects had fasted 2 hours prior to dosing until 4 hours post-dose. Water was allowed ad libitum except for 1 hour before and 1 hour after dosing.
(§5) Efficacy was assessed through the International Index of Erectile Function (IIEF)-15 questionnaire. The change from baseline in responses to questions of the IIEF-15 questionnaire, including questions regarding erectile function, orgasmic function, sexual desire, intercourse satisfaction and overall satisfaction domain scores, was determined at different time points of the study. RigiScan assessments during the stimulus assessment, and sperm count and motility by semen sample collection was used for efficacy evaluation. Safety was assessed through AE reporting, 12-lead ECG, vital signs, physical examinations, and clinical laboratory evaluations. Pharmacokinetics was assessed by blood sampling.

[2] = Solubility of IP2015 in aqueous and non-aqueous vehicles (visual, HPLC content); type: physicochemical
Protocol: Solubility of IP2015 was determined in both aqueous and non-aqueous vehicles. In non-aqueous liquids, the solubility was visually confirmed in progressive dilutions. The solubility of IP2015 in pH specific aqueous solutions was evaluated, the solubility was visually confirmed, and the content was evaluated by HPLC. Table 2. Solubility of IP2015 in different media.

[3] = tested on: male subjects with erectile dysfunction (ED); test: Phase IIb study in erectile dysfunction, IIEF-15 questionnaire efficacy; type: in vivo, humans
Source text: as §1, §2
The study lasted approximately 8 weeks and consisted of the following: • A screening visit (up to 21 days prior to the baseline visit) • A baseline visit (Day -7) • Outpatient visits on Week 1 (Day 1), Week 2, Week 3 and Week 4 • A follow-up visit a minimum of 7 to 10 days after their final dose.
as §3
The patients were otherwise healthy male subjects with ED as determined from an IIEF-5 score of ≤16, with a body mass index of 18 to 35 kg/m^2 (inclusive), of any ethnic origin. Subjects were aged between 18 to 59 years, inclusive.
as §4, §5
The results are means±SE. The statistical differences were performed with Mixed Model Repeated Measures (MMRM).

[4] = pH 5.8 Potassium Phosphate buffer
[5] = pH 6.8 Potassium Phosphate buffer
[6] = pH 7.5 Potassium Phosphate buffer
[7] = 5 mg IP2015 oral solution, overall score, tendency to difference

In the case of COc1cc2ccc(O[C@@H]3C[C@H]4CC[C@@H](C3)N4)cc2oc1=O [IP2015, Exo-7-[(-8-azabicyclo[3.2.1]octan-3-yl)oxy]-3-methoxy-chromen-2-one], the “Any TEAE, figure after the comma” value ([1]; IP2015 5mg, N=42) is reported as 61, the “Any TEAE, n (%)” value ([1]; IP2015 5mg, N=42) is reported as 32 (76.2 %) and the “TEAE Dizziness, figure after the comma” value ([1]; IP2015 5mg, N=42) is reported as 3. The “TEAE Dizziness, n (%)” value ([1]; IP2015 5mg, N=42) was 3 (7.1 %), the “TEAE Headache, figure after the comma” value ([1]; IP2015 5mg, N=42) was 15 and the “TEAE Headache, n (%)” value ([1]; IP2015 5mg, N=42) was 11 (26.2 %). The “TEAE Mild, figure after the comma” value ([1]; IP2015 5mg, N=42) was 56, the “TEAE Mild, n (%)” value ([1]; IP2015 5mg, N=42) was 29 (69.0 %) and the “TEAE Moderate, figure after the comma” value ([1]; IP2015 5mg, N=42) was 5. The “TEAE Moderate, n (%)” value ([1]; IP2015 5mg, N=42) was 3 (7.1%), the “TEAE Nausea, figure after the comma” value ([1]; IP2015 5mg, N=42) was 1 and the “TEAE Nausea, n (%)” value ([1]; IP2015 5mg, N=42) was 1 (2.4 %). The “TEAE Related*, figure after the comma” value ([1]; IP2015 5mg, N=42) was 19, the “TEAE Related*, n (%)” value ([1]; IP2015 5mg, N=42) was 10 (23.8 %) and the “TEAE Severe” value ([1]; IP2015 5mg, N=42) was 0. The “Any TEAE, figure after the comma” value ([1]; IP2015 10 mg, N=43) was 141, the “Any TEAE, n (%)” value ([1]; IP2015 10 mg, N=43) was 34 (79.1 %) and the “TEAE Dizziness, figure after the comma” value ([1]; IP2015 10 mg, N=43) was 15. For the same compound, the “TEAE Dizziness, n (%)” value ([1]; IP2015 10 mg, N=43) was 12 (27.9 %), the “TEAE Headache, figure after the comma” value ([1]; IP2015 10 mg, N=43) was 27 and the “TEAE Headache, n (%)” value ([1]; IP2015 10 mg, N=43) was 16 (37.2 %). For the same compound, the “TEAE Mild, figure after the comma” value ([1]; IP2015 10 mg, N=43) was 132, the “TEAE Mild, n (%)” value ([1]; IP2015 10 mg, N=43) was 33 (76.7%) and the “TEAE Moderate, figure after the comma” value ([1]; IP2015 10 mg, N=43) was 9. The “TEAE Moderate, n (%)” value ([1]; IP2015 10 mg, N=43) was 7 (16.3%), the “TEAE Nausea, figure after the comma” value ([1]; IP2015 10 mg, N=43) was 15 and the “TEAE Nausea, n (%)” value ([1]; IP2015 10 mg, N=43) was 8 (18.6 %). The “TEAE Related*, figure after the comma” value ([1]; IP2015 10 mg, N=43) was 84, the “TEAE Related*, n (%)” value ([1]; IP2015 10 mg, N=43) was 23 (53.5 %) and the “TEAE Severe” value ([1]; IP2015 10 mg, N=43) was 0. For the same compound, the severe side effects ([1]; any of the doses (5 mg, 10 mg)) was “No severe side effects were observed”, the Treatment-emergent adverse effects ([1]; low-dose (5 mg)) was “comparable to the placebo group” and the solubility ([2]; 0.1n hcl, pH 1.2 HCl (0.1N)) was 17 µg/mL (≈ 0.0564 mM). For the same compound, the “Inference (Ph.Eur)” value ([2]; N,N-dimethyl acetamide) was “Very slightly soluble”, the “Inference (Ph.Eur)” value ([2]; N-methyl-2-pyrrolidone) was “Very slightly soluble” and the solubility ([2]; aqueous solutions across physiological pH) was < 1000 µg/mL. The “Inference (Ph.Eur)” value ([2]; dimethyl sulfoxide) was “Slightly soluble”, the solubility ([2]; dimethyl sulfoxide) was 5000 to 10000 µg/mL (≈ 16.6 to 33.2 mM) and the “Inference (Ph.Eur)” value ([2]; ethanol) was “Very slightly soluble”. The solubility ([2]; ethanol) was < 1000 µg/mL, the “Inference (Ph.Eur)” value ([2]; glycerine) was “Very slightly soluble” and the solubility ([2]; glycerine) was < 1000 µg/mL. The solubility ([2]; n,n-dimethyl acetamide) was < 1000 µg/mL, the solubility ([2]; n-methyl-2-pyrrolidone) was < 1000 µg/mL and the “Inference (Ph.Eur)” value ([2]; pH 1.2 HCl (0.1N)) was “Very slightly soluble”. For the same compound, the “Inference (Ph.Eur)” value ([2]; pH 3.0 Acetate buffer) was “Slightly soluble”, the solubility ([2]; pH 3.0 Acetate buffer) was 1170 µg/mL (≈ 3.89 mM) and the “Inference (Ph.Eur)” value ([2]; pH 3.0 Citrate buffer) was “Very slightly soluble”. For the same compound, the solubility ([2]; pH 3.0 Citrate buffer) was 839 µg/mL (≈ 2.78 mM), the “Inference (Ph.Eur)” value ([2]; pH 4.0 Citrate buffer) was “Very slightly soluble” and the solubility ([2]; pH 4.0 Citrate buffer) was 849 µg/mL (≈ 2.82 mM). For the same compound, the “Inference (Ph.Eur)” value ([2]; pH 4.5 Acetate buffer) was “Very slightly soluble”, the solubility ([2]; pH 4.5 Acetate buffer) was 981 µg/mL (≈ 3.26 mM) and the “Inference (Ph.Eur)” value [2, 4] was “Very slightly soluble”. For the same compound, the solubility [2, 4] was 104 µg/mL (≈ 0.345 mM), the “Inference (Ph.Eur)” value [2, 5] was “Very slightly soluble” and the solubility [2, 5] was 146 µg/mL (≈ 0.484 mM). For the same compound, the “Inference (Ph.Eur)” value [2, 6] was “Very slightly soluble”, the solubility [2, 6] was 84 µg/mL (≈ 0.279 mM) and the “Inference (Ph.Eur)” value ([2]; polyethylene glycol 400) was “Very slightly soluble”. For the same compound, the solubility ([2]; polyethylene glycol 400) was < 1000 µg/mL, the “Inference (Ph.Eur)” value ([2]; propylene glycol) was “Slightly soluble” and the solubility ([2]; propylene glycol) was 1000 to 5000 µg/mL (≈ 3.32 to 16.6 mM). The “Inference (Ph.Eur)” value ([2]; purified water) was “Very slightly soluble”, the solubility ([2]; purified water) was 738 µg/mL (≈ 2.45 mM) and the “overall response to questions of IIEF-15, p versus baseline” value ([3]; 5 mg IP2015 oral solution, at follow-up, significant) was 0.0046. For the same compound, the “overall response to questions of IIEF-15, p versus placebo” value ([3]; 5 mg IP2015 oral solution, at follow-up, tendency) was 0.07, the “Q4 in the IIEF-15, overall score, p compared to placebo” value ([3]; 5 mg IP2015 oral solution, overall score, no difference) was 0.44 and the “overall response to questions of IIEF-15, overall score, p versus baseline” value ([3]; 5 mg IP2015 oral solution, overall score, significant) was 0.0032. The “overall response to questions of IIEF-15, overall score, p versus placebo” value ([3]; 5 mg IP2015 oral solution, overall score, tendency) was 0.10, the “Q3 in the IIEF-15, overall score, p versus baseline” value [3, 7] was 0.07 and the “Q3 in the IIEF-15, overall score, p versus placebo” value [3, 7] was 0.07. The “Q4 in the IIEF-15, overall score, p versus baseline” value [3, 7] was 0.056, the “Q3 in the IIEF-15, p versus baseline” value ([3]; 5 mg IP2015 oral solution, week 3, MMRM, significant) was 0.046 and the “Q3 in the IIEF-15, p versus placebo” value ([3]; 5 mg IP2015 oral solution, week 3, change from baseline, MMRM, significant) was 0.034. For the same compound, the “overall IIEF-15 score, score change” value ([3]; low dose (5 mg) of IP2015, called clinically significant) was 2.
